These results are taken from patent US10517844B2, “Inhibition of proline catabolism for the treatment of cancer and other therapeutic applications” (Buck Institute for Research on Aging, priority 2014, dated 2019).

Data set [1] addresses T1, PRODH (Homo sapiens, UniProt O43272).
T1 construct: Mitochondria freshly isolated from PPG pretreated (15 h) and washed (30 min) ZR-75-1 cells; endogenous in cells; host or cells: mitochondria isolated from ZR-75-1 human breast cancer cells
T1 sequence (O43272 1-600): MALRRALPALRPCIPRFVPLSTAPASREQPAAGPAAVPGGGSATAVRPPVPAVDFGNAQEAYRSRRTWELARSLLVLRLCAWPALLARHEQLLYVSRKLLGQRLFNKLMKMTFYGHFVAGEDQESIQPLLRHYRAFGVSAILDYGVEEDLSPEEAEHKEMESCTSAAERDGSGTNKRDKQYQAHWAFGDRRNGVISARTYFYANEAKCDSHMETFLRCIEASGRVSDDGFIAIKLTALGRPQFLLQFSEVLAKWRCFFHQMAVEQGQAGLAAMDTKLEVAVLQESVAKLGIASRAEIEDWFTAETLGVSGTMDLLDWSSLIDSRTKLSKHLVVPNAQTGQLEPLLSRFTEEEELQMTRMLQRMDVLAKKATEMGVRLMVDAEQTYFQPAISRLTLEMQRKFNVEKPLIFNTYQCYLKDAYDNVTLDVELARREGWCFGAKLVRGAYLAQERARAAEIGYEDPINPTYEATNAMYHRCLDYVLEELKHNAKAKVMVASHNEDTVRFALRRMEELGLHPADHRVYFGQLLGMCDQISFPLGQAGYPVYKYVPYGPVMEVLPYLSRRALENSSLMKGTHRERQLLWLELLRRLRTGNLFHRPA
Put plainly: NADH-generating mitochondrial PRODH bioassay. Format: biochemical. The text has this: Mitochondrial PRODH bioassays capable of measuring inhibitor activity are described in Goncalves et al. (2014) Redox Biol. 2: 901-909 (which is hereby incorporated by reference herein for this description). These include, inter alia: i) spectrophotometric detection of OAB reacted with proline generated P5C, ii) dual wavelength spectrophotometric detection (A566-A575) of endogenous cytochrome b566 reduction that occurs directly upon mitochondrial PRODH oxidation of proline, and iii) fluorescence spectrometry detection (lex 340 nm, lem 460 nm) of mitochondrial NADH levels as a function of substrate and inhibitor treatment. See details in Example below. The mitochondrial PRODH assay is described therein detects mitochondrial NADH production resulting downstream from PRODH production of P5C and then glutamate, while controlling for other sources of mitochondrial NADH production.
We have optimized our mitochondrial preparation technique and developed three different mitochondrial PRODH bioassays capable of measuring inhibitor activity which are now reported (Goncalves et al. (2014) Redox Biol. 2: 901-909); these include: i) spectrophotometric detection of OAB reacted with proline generated P5C, ii) dual wavelength spectrophotometric detection (A566-A575) of endogenous cytochrome b566 reduction that occurs directly upon mitochondrial PRODH oxidation of proline, and iii) fluorescence spectrometry detection (lex 340 nm, lem 460 nm) of mitochondrial NADH levels as a function of substrate and inhibitor treatment.
Briefly, in an exemplary protocol, cells are harvested from 2 to 4500 cm^2 dishes at 90% confluence, washed three times in ice-cold STE (250 mM sucrose, 5 mM Tris-HCl, 2 mM EGTA, pH7.4), scraped off, suspended in 50 ml STE and centrifuged for 10 min at 500 g. The pellet is resuspended in STE supplemented with 1% (w/v) fatty acid-free bovine serum albumin and homogenized (up to 20 strokes). The suspension is brought to 50 ml and centrifuged for 5 min at 1000 g. The supernatant is centrifuged for 10 min at 11,000 g. The pellet is resuspended in STE and centrifuged for 10 min at 10,000 g. The mitochondrial pellet is resuspended in STE and kept on ice. Protein is determined by Bradford assay(Biorad).
NAD(P)H is measured using 0.3 mg mitochondrial protein/ml at 37° C. in KHEPMB (KHE containing 5 mM K2HPO4, 2 mM MgCl2, 0.3% (w/v) fatty acid-free bovine serum albumin) plus 1 mM ADP and 2.5 μg/ml oligomycin. The reduction state of endogenous NAD(P)H Is determined by autofluorescence using the Pherastar microplate reader at λexcitation=340 nm, λemission=460 nm. NAD(P)H was assumed to be 0% reduced after 5 min without added substrate, then rotenone was added. The 100% reduced level was established with saturating substrate (e.g., 5 mM malate, glutamate and proline) and 4 μM rotenone. Intermediate values were determined as % reduced NAD(P)H relative to the 0% and 100% values.
For screening purposes, the NADH fluorescence bioassay can be routinely used as it is the most sensitive and amenable to higher throughput.

Data set [2] deals with multiple breast cancer cell lines. Put plainly: Growth inhibition in combination with CB-839. Format: cell-based, human.
Another data set has as its system MCF7. Briefly: Growth inhibition / cell viability, drug combination. Format: cell-based, human. As to conditions: for Growth inhibiting interaction with CB-839: 72 h; for Cell viability, interaction with CB-839: MCF7, single dose, 48 h.
The next data set concerns breast cancer models. Put plainly: Interaction of PRODH inhibitors with p53 wt restoration. Format: cell-based, human. Particulars: various breast cancer models. The text has this:
Our recent studies have shown that p53 wt restoration by the MDM2 inhibitor MI-63 triggers early and very different mitochondrial bioenergetic and global metabolic pool changes between malignant (e.g., MCF7, ZR-75-1, ZR-75-30, DU4475) and non-malignant (e.g., MCF-10A) mammary epithelial systems (Yau et al. (2011) Amer. Assoc. Cancer Res. 52: a3797, 2011; Yau et al. (2012) Amer. Assoc. Cancer Res. 53: a5160). Having first observed that PRODH siRNA knockdown promotes apoptosis in p53 wt breast cancer cells, we then evaluated PRODH knockdown in combination with MI-63 induced p53 restoration. […] Knockdown of P5CDH (the next enzymatic step in proline catabolism) produced a similar but less pronounced pro-apoptotic response in combination with MI-63, convincing us that PRODH is the most appropriate therapeutic target for synthetic lethality. […] Equally relevant, since PRODH provides a bypass source of mitochondrial glutamate for glutamine-addicted (e.g., GLS1 overexpressing) cancers, particularly those most sensitive to clinically emergent GLS1 inhibitors like CB-839 (Katt and Cerione (2014) Drug Discov. Today, 19: 450-457; Gross et al. (2014) Mol. Cancer Ther. 13: 890-901), our new data also supports the fact that PRODH inhibition induces a synthetic lethal anticancer response in combination with GLS1 inhibition among our various breast cancer models.

A further data set deals with MCF10A cells. Put plainly: Cell viability, non-malignant cells. Format: cell-based, human.
The subject of another data set is DU4475. Briefly: Growth inhibition / cell viability, drug combination. As to conditions: for Growth inhibiting interaction with CB-839: 72 h. Format: cell-based, human.
A further data set concerns BT474. Put plainly: Growth inhibition, drug combination. Format: cell-based, human. Particulars: for Growth inhibiting interaction with CB-839: 72 h.
Another data set has as its system ZR75-1. Briefly: Growth inhibition, drug combination. Format: cell-based, human. Particulars: for Growth inhibiting interaction with CB-839: 72 h.
The subject of data set [3] is DU4475 breast cancer cells. Put plainly: Apoptosis by cleaved PARP Western blot. As to conditions: DU4475, combined with MI-63. Format: cell-based, human.
The target of data set [4] is PRODH. Particulars: cited from earlier work.
Data set [5] relates to malignant breast epithelial cells. Briefly: Protein levels after p53 restoration by MI-63. Format: cell-based, human. The source says:
New cancer treatments based on the restoration or reactivation of p53 wt function were first envisioned over a decade ago, and multiple pharmacological strategies have since emerged from preclinical studies that now show great clinical promise (12-17), particularly against malignancies like breast cancers in which 75% of all newly diagnosed cases express wildtype p53 (TCGA Network (2012). Nature 490: 61-70). […] Likewise, p53 induced metabolic changes linking proline metabolism to the urea cycle (OAT) and to glutaminolysis (GLS2) and the TCA cycle have been observed in our model systems (Yau et al. (2012) Amer. Assoc. Cancer Res. 53: a5160).

The next data set concerns ZR-75-1. Put plainly: Protein degradation in treated culture (Western blot). Format: cell-based, human.
Data set [6] deals with PRODH. Briefly: Dietary PPG in adult Drosophila, Sluggish-A phenotype. Format: in vivo. Particulars: dietary 5 mM x 48 h.
The test system of a further data set is Drosophila. Put plainly: Drosophila lifespan after dietary PPG during oogenesis. Format: in vivo. Particulars: dietary 5 mM x 24 h during oogenesis, 2nd day collected eggs, 70 days. The procedure:
Female Drosophila were starved for 4 h, then combined with males on liquid 5% sucrose food with or without 5 mM PPG. After 24 h, females were transferred to egg collection containers, and eggs collected after 1, 2, and 3 days. Collected eggs were transferred to bottles of regular food, separately for each collection day. Larvae developed normally, were transferred to vials after eclosion; vials were exchanged thrice weekly throughout life.

[7] abbreviates: ZR-75-1 cells pretreated 15 h, washed 30 min.

“Also recorded” adds a separate entry of the source.

Take `C#CC(C)NCC(=O)O` (racemic) [(R/S)-PPG]: the PRODH inhibiting activity result at PRODH [1] (mitochondrial PRODH assay) is “retains PRODH inhibiting activity”.

As for `O=C1CC[C@@H](C(=O)O)O1` [Compound 5-oxo, (S)-(+)-5-oxo-2-tetrahydrofurancarboxylic acid], the “S versus R isomers in mitochondrial PRODH bioassay” value at PRODH [1] is recorded as “stereospecificity of S-5-oxo”. Also, the “PRODH enzymatic inhibition after washout” value on PRODH [1] (same washout (30 min)) is recorded as “completely lost (reversed); also recorded: completely lost by washout”. Also, the results for the “Growth inhibition in combination with CB-839” value in data set [2] (within 48 h) and in data set [2] (within 72 h) were “additive growth inhibition” and “synergistic growth inhibition”, respectively. In addition, the Treatment interaction entry is reported as “Synergistic” in the data set on MCF7 (MCF7, 5-oxo (1 μM) + CB839 (1 μM)); “Synergistic” in the data set on DU4475 (DU4475, 5-oxo (1 μM) + CB839 (1 μM)); “Additive” with BT474 (BT474, 5-oxo (1 μM) + CB839 (1 μM)); “Synergistic” in the data set on ZR75-1 (ZR75-1, 5-oxo (1 μM) + CB839 (1 μM)). Further, the “Growth inhibiting interaction with CB-839” value in the data set with MCF7 (MCF7, +5-oxo (5 mM)) is “Synergistic”; in the data set on DU4475 (DU4475, +5-oxo (5 mM)) it was “Synergistic”; in the data set on BT474 (BT474, +5-oxo (5 mM)), “Additive”; in the data set with ZR75-1 (ZR75-1, +5-oxo (5 mM)) it was “Synergistic”. The “Cell viability, interaction with CB-839” value in the data set with MCF7 is “additive interactions”. The “Interaction with p53 wt restoration” value in the data set on breast cancer models is “synthetic lethal interactions”. Moreover, the “Cell viability / growth inhibition in non-malignant cells” value with MCF10A cells (combined with CB-839) is listed as “no treatment effects”; in the data set with MCF10A cells (combined with CB-839, listed as S-5-oxo), “lack of any growth inhibition”.

`O=C(O)[C@@H]1CCCO1` [L-THFA, L-tetrahydro-2-furoic acid]: the “Interaction with p53 wt restoration” value in the data set on breast cancer models was “synthetic lethal interactions”. Also, the “Viable cell growth in culture” value in the data set with DU4475 (DU4475, combined with MI-63) is “synthetic lethality effectiveness; also recorded: synergistically reduces viable cell growth”. Further, the “Apoptosis (c PARP production) over MI-63 treatment alone” value in [3] is about 4 fold. Moreover, the Ki on PRODH [4] is 300 µM.

For the molecule `CC(C)(C)C[C@H]1N[C@@H](C(=O)NCCN2CCOCC2)[C@H](c2cccc(Cl)c2F)[C@@]12C(=O)Nc1cc(Cl)ccc12` [MI-63], in [5], the “Induction of PRODH protein levels” value was at least 5 fold, the “P5C reductase (PYCR1) levels” value was “coordinate decrease” and the P5CDH protein level entry is reported as “no change”.

In the case of `COc1ccc(C2=N[C@@H](c3ccc(Cl)cc3)[C@@H](c3ccc(Cl)cc3)N2C(=O)N2CCNC(=O)C2)c(OC(C)C)c1` [Nutlin-3a, reference compound], the “Growth inhibiting interaction with CB-839” value in the data set on MCF7 (MCF7, +Nutlin-3a (5 μM)) is reported as “Additive”; in the data set with DU4475 (DU4475, +Nutlin-3a (5 μM)), “Synergistic”; in the data set with BT474 (BT474, +Nutlin-3a (5 μM)), “No interaction”; in the data set on ZR75-1 (ZR75-1, +Nutlin-3a (5 μM)), “Additive”.

Regarding `C#CCNCC(=O)O` [PPG, N-propargylglycine], the “PRODH enzymatic inhibition compared at equimolar inhibitor concentration” value on PRODH [1] (2 mM) is reported as “significantly greater PRODH enzymatic inhibition over S-5-oxo”. Besides, on PRODH [1] (setting [7]), the “Malate metabolism (NADH formation) by isolated mitochondria” value was “not affected; also recorded: fully capable of metabolizing malate” and the “Proline metabolism (NADH formation) by isolated mitochondria” value is reported as “remain unable to metabolize proline; also recorded: remained completely unable to metabolize proline”. Also, the “Growth inhibition in combination with CB-839” value in data set [2] (within 48 h) is given as “additive growth inhibition”. Also, the “Growth inhibition in combination with CB-839” value in data set [2] (within 72 h) is “synergistic growth inhibition”. Besides, in the data set on MCF7, the “Cell viability, interaction with CB-839” value is reported as “additive interactions”. The “Interaction with p53 wt restoration” value in the data set on breast cancer models is listed as “synthetic lethal interactions”. For the same molecule, the “Cell viability / growth inhibition in non-malignant cells” value in the data set with MCF10A cells (combined with CB-839) is given as “no treatment effects; also recorded: lack of any growth inhibition”. The “Time of exposure to PRODH protein degradation” value with ZR-75-1 is recorded as at most 24 h. Moreover, in the data set with ZR-75-1 (ZR-75-1, 24-72 h), the “Cytoplasmic FAD containing protein MTHFR decline” value is recorded as “does not” and the “Mitochondrial complex-1 protein NDUFS1 level” value is “also declines”. The “Degradation of PRODH protein” value with ZR-75-1 (ZR-75-1 culture treatment, within 24-72 h) was 30-60%. In the data set on PRODH [6], the Fly viability entry is “without loss of fly viability” and the “PRODH inhibition in vivo (Sluggish-A phenotype)” value is listed as “completely inhibits PRODH in vivo”. Also, the “Median and maximum lifespan” value in the data set with Drosophila is “significantly extends median and maximum lifespan”.
